Measurements as given in patent publication US12065407B2, “Dual acting FKBP12 and FKBP52 inhibitors” (PLEX PHARMACEUTICALS, INC., priority 2017, dated 2024).
Where “and” joins values, the source holds several entries; their conditions need not be identical. Identical values can stand only once. Like-named read-outs stand apart in the source and are kept apart here.

What was measured:
WT21 cells = test: Cytotoxicity to WT21 cells (MTS tetrazolium dye reduction); type: cell-based, human; conditions: concentrations under 50 μM
[1] = system: A53T mutant α-synuclein overexpressing BE(2)-M17 cells (M3.2); test: Neuroprotection in A53T mutant α-synuclein overexpressing BE(2)-M17 cells (M3.2); type: cell-based, human; conditions: for Neuroprotection (cell viability): A53T mutant α-synuclein cells (M3.2), Alamar Blue assay
Experimental: (§1) BE(2)-M17 human neuroblastoma cells engineered to stably express either wild type or A53T mutant α-synuclein, PC12 rat pheochromocytoma, or SH-SY5Y human neuroblastoma cells were cultured in 96-well cell culture dishes in a humidified incubator at 37° C., 5% CO2. The growth medium was supplemented with 0.1% dimethyl sulfoxide (vehicle control) or compounds dissolved in dimethyl sulfoxide. Following 2 hours of exposure to compounds, the growth medium was further supplemented with 6-hydroxydopamine (or 0.1% ascorbic acid vehicle control) and incubated for an additional 24-48 hours.
(§2) See FIGS. 1A and 1B for neuroprotection observed in PC12 cells treated with dual acting FKBP12 and FKBP52 inhibitory exemplary compounds CAP01687 (FIG. 1A) and CAP01693 (FIG. 1B) measured using WST-8 assay. Specifically, FIGS. 1A and 1B, show relative percent protection from 6-OHDA, the vehicle control being set to 0% relative protection. […] Neuroprotection was also observed in A53T mutant α-synuclein overexpressing BE(2)-M17 cells (M3.2) treated with CAP01687 (FIG. 3B). The bars in FIGS. 3A and 3B depict relative percent fluorescence, which is proportional to cell viability, with the vehicle control being 100%.]
as §1, with “pheochromocytoma cells,” for “pheochromocytoma,”, “C. and” for “C.,”, “(OHDA) or” for “(or”, “hours. […]” for “hours.”

PC12 cells = test: Neurite outgrowth; type: cell-based, rat; conditions: light microscopy, bar graph
Experimental: PC12 rat pheochromocytoma or SH-SY5Y human neuroblastoma cells were grown on glass coverslips in a 24-well cell culture dish in a humidified incubator at 37° C., 5% CO2. After 24 hours, the cells were washed with phosphate buffered saline and the serum concentration of the growth medium was reduced to 0.2%. After 16 hours in the reduced serum medium, 0.1% dimethyl sulfoxide (vehicle control) or compounds dissolved in dimethyl sulfoxide were added to the growth medium. Following 2 hours of exposure to compounds, the growth medium was supplemented with 6-hydroxydopamine (or 0.1% ascorbic acid vehicle control), nerve growth factor (or phosphate-buffered saline vehicle control), in addition to 0.1% dimethyl sulfoxide (vehicle control) or compounds dissolved in dimethyl sulfoxide. […] Phase contrast images were captured at 20× magnification and the percentage of cells with neurites longer than 20 μm were scored for approximately 200 cells in each condition using ImageJ software.
PC12 rat pheochromocytoma or SH-SY5Y human neuroblastoma cells were grown on glass coverslips in a 24-well cell culture dish in a humidified incubator at 37° C. and 5% CO2. […] Phase contrast images were captured at 20× magnification and the percentage of cells with neurites longer than 20 μm were scored for approximately 200 cells in each condition using ImageJ software.

[2] = Microsomal stability (Clint assay), rat liver microsome; type: in vitro ADME; conditions: male, Sprague-Dawley, liver microsomes, pH 7.4, 1 μM compound, 0.5 mg/mL protein, 1 mM NADPH, 37° C.; for microsomal CLint at 1 μM: read-out: Clearance CL int (rat microsomes); for half-life at 1 μM: read-out: Rat microsomes T1/2
Experimental: (§3) Microsomal stability measurements were carried out by Clint assay. Test compounds were incubated with liver microsome, and metabolic stability was determined over 45 minutes. The experimental conditions were as follows. […]

[3] = Microsomal stability (Clint assay), human liver microsome; type: in vitro ADME; conditions: both sexes, liver microsomes, pH 7.4, 1 μM compound, 0.5 mg/mL protein, 1 mM NADPH, 37° C.; for microsomal CLint at 1 μM: read-out: Clearance CL int (human microsomes); for half-life at 1 μM: read-out: Human microsomes T1/2
Experimental: as §3

[4] = system: wild type α-synuclein overexpressing BE(2)-M17 cells (WT21); test: Neuroprotection in wild type α-synuclein overexpressing BE(2)-M17 cells (WT21); type: cell-based, human; conditions: Alamar Blue assay
Experimental: as §1
as §2, with “Cell viability was measured by reduction of WST-8 or AlamarBlue® and the relative protection from 6-hydroxydopamine was measured by calculating the percentage of viable cells normalized to 6-hydroxydopamine treated cells in the absence of compound. See” for “See”
BE(2)-M17 human neuroblastoma cells engineered to stably express either wild type or A53T mutant α-synuclein, PC12 rat pheochromocytoma cells, or SH-SY5Y human neuroblastoma cells were cultured in 96-well cell culture dishes in a humidified incubator at 37° C. and 5% CO2. The growth medium was supplemented with 0.1% dimethyl sulfoxide (vehicle control) or compounds dissolved in dimethyl sulfoxide. […]
Cell viability was measured by reduction of WST-8 or alamarBlue® and the relative protection from 6-hydroxydopamine was measured by calculating the percentage of viable cells normalized to 6-hydroxydopamine treated cells in the absence of compound.

[5] = Distribution of inhibitors in plasma and brain after intravenous dosing of mice; type: in vivo; conditions: 1 mg/kg IV; for Plasma Concentrations, mean: n = 5; for concentration at 1 h / concentration at 0.15 h / concentration at 0.5 h: male, CD1, mouse, iv, 1 mg/kg
Experimental: Distribution of inhibitors in plasma and brain tissue was examined after intravenous dosing of mice with inhibitors. The experimental conditions were as follows: Mice: male CD1 about 8 weeks old; body weight: about 25 g; No. of groups: one; No. of animals per group: 5; vehicle for IV dosing: DMSO; dosage: 1 mg/kg.
Plasma samples were separated by centrifugation in presence of K2-EDTA as anticoagulant. Brain tissue were homogenized in phosphate buffer saline and processed for bioanalysis as per standard practice. Samples were analyzed by a discovery grade bio-analytical method using LC-MS/MS method.

[6] = system: PC12 rat pheochromocytoma cells; test: Neuroprotection from 6-hydroxydopamine in PC12 cells (WST-8); type: cell-based; conditions: WST-8 assay, FIG. 1
Experimental: as §1
Cell viability was measured by reduction of WST-8 or AlamarBlue® and the relative protection from 6-hydroxydopamine was measured by calculating the percentage of viable cells normalized to 6-hydroxydopamine treated cells in the absence of compound. See FIGS. 1A and 1B for neuroprotection observed in PC12 cells treated with dual acting FKBP12 and FKBP52 inhibitory exemplary compounds CAP01687 (FIG. 1A) and CAP01693 (FIG. 1B) measured using WST-8 assay. Specifically, FIGS. 1A and 1B, show relative percent protection from 6-OHDA, the vehicle control being set to 0% relative protection. […] The bars in FIGS. 3A and 3B depict relative percent fluorescence, which is proportional to cell viability, with the vehicle control being 100%.] […]

[7] = brain, 1 h, n = 5, read-out: Brain concentrations, mean
[8] = plasma, 0.15 h, n = 5, read-out: Plasma Concentrations, mean
[9] = plasma, 0.5 h, n = 5, read-out: Plasma Concentrations, mean
[10] = plasma, 0.5 h, read-out: Plasma Concentrations, individual animals
[11] = plasma, 1 h, n = 5, read-out: Plasma Concentrations, mean
[12] = plasma, 1 h, read-out: Plasma Concentrations, individual animals

Compound: COc1ccc(/N=N/c2nc3ccccc3n2C)c2ccccc12 [CAP01324]
- Cytotoxicity (relative change in absorbance, MTS) (WT21 cells): not cytotoxic
- Neuroprotection (relative change in absorbance, MTS) ([1]; A53T mutant cells, 100 nM, MTS tetrazolium dye): neuroprotection

Compound: CCn1c(/C=C/c2ccc(Cl)cc2)nc2ccccc21 [CAP01510]
- Neurite outgrowth (percentage of cells with neurites longer than 20 μm) (PC12 cells): dose dependent promotion of neurite outgrowth

Compound: Cc1ccc(Cn2c(/C=C/c3ccc(F)cc3)nc3ccccc32)cc1 [CAP01551, 2-[2-(4-fluorophenyl)vinyl]-1-(4-methylbenzyl)-1H-benzimidazole]
- microsomal CLint at 1 μM [2]: 202 µL/min/mg
- half-life at 1 μM [2]: 6.85 min
- microsomal CLint at 1 μM [3]: 52.4 µL/min/mg
- half-life at 1 μM [3]: 26.4 min
- Neuroprotection (cell viability) [4]: neuroprotection
- Plasma Concentrations, individual animals ([5]; 0.15 h): 217.36 ng/mL and 295.33 ng/mL and 122.46 ng/mL and 203.22 ng/mL and 134.60 ng/mL
- Plasma Concentrations, mean ([5]; 0.15 h): 0.19459 µg/mL
- Plasma Concentrations, individual animals ([5]; 0.5 h): 88.98 ng/mL and 46.31 ng/mL and 62.88 ng/mL and 56.74 ng/mL
- Plasma Concentrations, mean ([5]; 0.5 h): 0.06536 µg/mL
- Brain concentrations, individual animals ([5]; 1 h): 81.88 ng/G and 57.91 ng/G and 63.84 ng/G and 74.50 ng/G
- Plasma Concentrations, individual animals ([5]; 1 h): 52.86 ng/mL (2×) and 27.45 ng/mL (2×) and 27.24 ng/mL (2×) and 27.74 ng/mL (2×) and 33.70 ng/mL
- Plasma Concentrations, mean ([5]; 1 h): 0.0338 µg/mL
- concentration at 1 h [5, 7]: 70.4 ng/g
- concentration at 1 h ([5]; brain, 1 h, read-out: Brain concentrations, individual animals): 73.8 ng/g
- concentration at 0.15 h [5, 8]: 0.195 ± 0.0699 µg/mL
- concentration at 0.5 h [5, 9]: 0.0654 ± 0.0162 µg/mL
- concentration at 0.5 h [5, 10]: 0.0719 µg/mL
- concentration at 1 h [5, 11]: 0.0338 ± 0.011 µg/mL
- concentration at 1 h [5, 12]: 0.0337 µg/mL

Compound: CC(C)CCn1c(/C=C/c2ccc(F)cc2)nc2ccccc21 [CAP01559]
- Neuroprotection (cell viability) [4]: neuroprotection
- Neuroprotection (cell viability) [1]: neuroprotection

Compound: O=C(N[C@@H](Cc1ccc(Cl)cc1)C(=O)NCCCc1ccccc1)c1ccc2cc(F)ccc2c1 [CAP01687]
- Neuroprotection (cell viability) [4]: neuroprotection
- Neuroprotection (relative percent protection from 6-OHDA) [6]: neuroprotection
- Neurite outgrowth (percentage of cells with neurites longer than 20 μm) (PC12 cells): promotion of neurite outgrowth
- Neuroprotection (cell viability) [1]: neuroprotection

Compound: O=C(N[C@@H](Cc1ccc(Cl)cc1)C(=O)NCCCc1cccnc1)c1ccc2cc(F)ccc2c1 [CAP01693, (2S)-3-(4-chlorophenyl)-2-[(6-fluoronaphthalen-2-yl)-formamido]-N-[3-(pyridine-3-yl)propyl]propanamide]
- Neuroprotection (relative percent protection from 6-OHDA) [6]: neuroprotection

Compound: O=C(N[C@H](C(=O)NCCCc1ccccc1)c1ccccc1)c1ccc2cc(F)ccc2c1 [CAP01723, (2S)-2-[(6-fluoronaphthalen-2-yl)formamido]-2-phenyl-N-(3-phenylpropyl)acetamide]
- microsomal CLint at 1 μM [2]: 130 µL/min/mg
- half-life at 1 μM [2]: 10.7 min
- microsomal CLint at 1 μM [3]: 167 µL/min/mg
- half-life at 1 μM [3]: 8.29 min
- Plasma Concentrations, individual animals ([5]; 0.15 h): 258.2 ng/mL and 225.3 ng/mL and 225.4 ng/mL and 244.2 ng/mL
- Plasma Concentrations, mean ([5]; 0.15 h): 0.2397 µg/mL
- Plasma Concentrations, individual animals ([5]; 0.5 h): 106.1 ng/mL and 97.6 ng/mL and 102.6 ng/mL and 93.2 ng/mL
- Plasma Concentrations, mean ([5]; 0.5 h): 0.1005 µg/mL
- Brain concentrations, individual animals ([5]; 1 h): 17.2 ng/G and 14.6 ng/G and 31.9 ng/G and 9.5 ng/G and 22.3 ng/G
- Plasma Concentrations, individual animals ([5]; 1 h): 41.1 ng/mL (2×) and 58.7 ng/mL (2×) and 53.5 ng/mL (2×) and 45.4 ng/mL (2×) and 50.3 ng/mL
- Plasma Concentrations, mean ([5]; 1 h): 0.0498 µg/mL
- concentration at 1 h [5, 7]: 19.1 ng/g
- concentration at 0.15 h [5, 8]: 0.24 ± 0.0142 µg/mL
- concentration at 0.15 h ([5]; plasma, 0.15 h, read-out: Plasma Concentrations, individual animals): 0.246 µg/mL
- concentration at 0.5 h [5, 9]: 0.101 ± 0.0051 µg/mL
- concentration at 0.5 h [5, 10]: 0.103 µg/mL
- concentration at 1 h [5, 11]: 0.0498 ± 0.0068 µg/mL
- concentration at 1 h [5, 12]: 0.0503 µg/mL
